Laboratory results published in patent publication US10918610B2, “Compounds and methods of promoting myelination” (Case Western Reserve University, priority 2017, dated 2021).

Test system: corpus callosum
Assay: LPC-induced demyelination in corpus callosum, DTI-MRI fractional anisotropy
Assay type: in vivo, Sprague-Dawley male rats
Conditions: rats, 20 mg/kg intraperitoneal QD
Description: In total, 30 Sprague-Dawley male rats (˜200-300 g) were infused with lysophosphatidylcholine (LPC) on the ipsilateral side and with vehicle for LPC on the contralateral side of the corpus callosum in order to induce demyelination. […] Cis-N-cyclohexyl-N-ethyl-3-(3-chloro-4-cyclohexylphenyl)prop-2-enylamine was diluted to a final concentration of 2.5% ETOH and 2.5% Kolliphor in Saline. DTI-MRI was used as a primary method to quantify the demyelinated lesion and to assess the organization of white matter in corpus callosum over time, on days 3, 10 and 15. Day 3 served as a baseline followed by repeated analyses during the therapeutic period. On day 15, the animals were euthanized and tissue samples collected. The amount of demyelination and the extent of neuronal loss were analyzed by histological analysis of MBP and Nissl substance, respectively, in corpus callosum.
Demyelination in corpus callosum was induced by stereotactic infusion of lysophospatidylcholine (LPC, Santa Cruz, Calif., USA) directly to the target tissue. First, rats were anesthetized with 5% isoflurane (in 70% N20 and 30% 02; flow 300 ml/min) and placed in a stereotactic frame. […]
Analgesics were administered during and after the surgery. […] Rats were carefully monitored by laboratory personnel twice a day and any rats prematurely fulfilling the criteria for humane end-points were euthanized during the study. […]

In the case of CCN(C/C=C\c1ccc(C2CCCCC2)c(Cl)c1)C1CCCCC1 [Cis-N-cyclohexyl-N-ethyl-3-(3-chloro-4-cyclohexylphenyl)prop-2-enylamine], the “ipsilateral FA measurements, difference between the groups at Day 15” value (Day 15) is reported as “trend in improvement” and the “fractional anisotropy (FA) value of the ipsilateral side (FIG. 8B)” value (days 3-15 after LPC infusion, versus vehicle) is reported as “noticeable recovery of the FA value”.
